Measured values published in patent US20230120597A1, “CO-AGONISTS AT GLP-1 AND GIP RECEPTORS SUITABLE FOR ORAL DELIVERY” (Novo Nordisk A/S, priority 2020, published 2023).
Marks after values point to notes of the source that are not given here. Starred links: 1 amine or outer side, 2 acyl side, 3 side chain; linkers in the order of their positions; H or OH if unused. Non-standard residues stand in square brackets, D forms with d. Residues, ends and D or L forms follow the SMILES beside them. Groups on a side chain read outwards from the residue. *: point of attachment. C20 diacid = O=C(O)CCCCCCCCCCCCCCCCCCC(=O)*; C18 diacid = O=C(O)CCCCCCCCCCCCCCCCC(=O)*; γGlu = O=C(O)[C@H](CCC(=O)[*:2])N[*:1]; εLys = N[C@@H](CCCCN[*:1])C(=O)[*:2]; Aib = CC(C)(N)C(=O)O

Experiment: Pharmacokinetic study in dogs, oral dosing of tablet compositions with SNAC
Assay type: in vivo, Beagle dogs
Conditions: dog, in vivo, po
Experimental: The purpose of this example is to determine the half-life and plasma exposure in vivo of the compounds of the present invention after p.o. administration to beagle dogs, i.e. the terminal half-life and concentration of test substance that reaches circulation with time. This is done in a pharmacokinetic (PK) study, where these parameters of the compound in question are determined. By terminal half-life is generally meant the period of time it takes to halve a certain plasma concentration, measured after the initial distribution phase.
The amount of SNAC in the tablet composition was 100-300 mg, the amount of magnesium stearate in the tablet composition was 7.7 mg, and the target amount of each test substance in the tablet composition was 3-4 mg.
Male beagle dogs, 1-7 years of age and weighing 9-17 kg during the study period, were included in the study. The dogs were dosed in a fasting state. The dogs were group housed in pens (12 hours light: 12 hours dark), and fed individually and restrictedly once daily with Royal Canin Medium Adult dog food (Royal Canin Products, China Branch, or Brogaarden A/S, Denmark). The dogs were used for repeated PK studies with a suitable wash-out period between successive dosing. An appropriate acclimatization period was given prior to initiation of the first PK study. All handling, dosing, and blood sampling of the animals were performed by trained and skilled staff. Before the studies, the dogs were fasted overnight and from 0 to 4 hours after dosing. The dogs were restricted to water 1 hour before dosing until 4 hours after dosing, but otherwise had ad libitum access to water during the whole period.
The compositions were administered by a single oral dosing to the dogs in groups of 6-8 dogs. […] The mouth was then closed, and 10 mL of tap water was given by syringe or gavage to facilitate swallowing of the tablet.
One blood sample was drawn before dosing, and additional samples were drawn at predefined time points after dosing for up to 240 hours, such as up to 10 hours, to adequately cover the full plasma concentration-time absorption profile of the test substance. For each blood sample time point, approximately 0.8 mL of whole blood was collected in a 1.5 mL EDTA-coated tube, which was gently turned to mix the sample with EDTA. Blood samples were collected in EDTA buffer (8 mM) and then centrifuged at 4° C. 2000 g for 10 minutes. Plasma was pipetted into Micronic tubes on dry ice, and kept at −20° C. or lower until analysis. Blood samples were taken as appropriate, for example from a venflon in the cephalic vein in the front leg for the first 2 hours and then with syringe from the jugular vein for the rest of the time points. The first few drops were allowed to drain from the venflon to avoid heparin saline from the venflon in the sample.
All blood samples were collected into test tubes containing EDTA for stabilisation and kept on ice until centrifugation. Plasma was separated from whole blood by centrifugation and the plasma was stored at −20° C. or lower until analysis.
The plasma was analysed for test substance using LC-MS (Liquid Chromatography-Mass Spectrometry) as known to the person skilled in the art. […] RP-HPLC separation was achieved using a linear gradient of 1:1 acetonitrile/methanol in 1% aqueous formic acid using either: a Phenomenex Onyx Monolithic C18 column (50×2.0 mm) and a flow rate of 0.8 mL/min at 30° C.; or an Agilent Poroshell 120 SB-C18 column (50×2.1 mm, 2.7 μm) at a flow rate of 0.4 mL/min at 60° C. The mass spectrometer was operated in either positive ionization SIM mode or positive ionization PRM mode.
For each individual animal, a plasma concentration-time profile was analysed by a non-compartmental model in Pharsight Phoenix WinNonLin ver.

SMILES | AUC/Dose
CC[C@H](C)[C@H](NC(=O)[C@H](Cc1ccccc1)NC(=O)[C@H](CCC(=O)O)NC(=O)[C@H](CCCNC(=N)N)NC(=O)[C@H](C)NC(=O)[C@H](C)NC(=O)[C@H](CCC(N)=O)NC(=O)[C@H](CCCCNC(=O)[C@@H](N)CCCCNC(=O)[C@@H](N)CCCCNC(=O)CC[C@H](NC(=O)CCCCCCCCCCCCCCCCCCC(=O)O)C(=O)O)NC(=O)[C@H](CCC(=O)O)NC(=O)[C@H](CC(C)C)NC(=O)[C@H](Cc1ccc(O)cc1)NC(=O)[C@@H](NC(=O)[C@H](CO)NC(=O)[C@H](Cc1ccc(O)cc1)NC(=O)[C@H](CC(=O)O)NC(=O)[C@H](CO)NC(=O)[C@@H](NC(=O)[C@H](Cc1ccccc1)NC(=O)[C@@H](NC(=O)CNC(=O)[C@H](CCC(=O)O)NC(=O)C(C)(C)NC(=O)[C@@H](N)Cc1ccc(O)cc1)[C@@H](C)O)[C@@H](C)O)[C@@H](C)CC)C(=O)N[C@@H](CC(N)=O)C(=O)N[C@@H](Cc1c[nH]c2ccccc12)C(=O)N[C@@H](CC(C)C)C(=O)N[C@@H](CC(C)C)C(=O)N[C@@H](C)C(=O)NCC(=O)NCC(=O)N1CCC[C@H]1C(=O)N[C@@H](CO)C(=O)N[C@@H](CO)C(=O)NCC(=O)N[C@@H](C)C(=O)N1CCC[C@H]1C(=O)N1CCC[C@H]1C(=O)N1CCC[C@H]1C(=O)N[C@@H](CO)C(=O)O [Compound No. 16] (H-Y[Aib]EGTFTSDYSIYLEK([εLys-εLys-γGlu-C20 diacid])QAAREFINWLLAGGPSSGAPPPS-OH) | 8.6 kg·h/L
CC[C@H](C)[C@H](NC(=O)[C@H](Cc1ccccc1)NC(=O)[C@H](CCC(=O)O)NC(=O)[C@H](CCCNC(=N)N)NC(=O)[C@H](C)NC(=O)[C@H](C)NC(=O)[C@H](CCC(N)=O)NC(=O)[C@H](CCCCNC(=O)[C@@H](N)CCCCNC(=O)[C@@H](N)CCCCNC(=O)CC[C@H](NC(=O)CCCCCCCCCCCCCCCCC(=O)O)C(=O)O)NC(=O)[C@H](CCC(=O)O)NC(=O)[C@H](CC(C)C)NC(=O)[C@H](CC(C)C)NC(=O)[C@@H](NC(=O)[C@H](CO)NC(=O)[C@H](Cc1ccc(O)cc1)NC(=O)[C@H](CC(=O)O)NC(=O)[C@H](CO)NC(=O)[C@@H](NC(=O)[C@H](Cc1ccccc1)NC(=O)[C@@H](NC(=O)CNC(=O)[C@H](CCC(=O)O)NC(=O)C(C)(C)NC(=O)[C@@H](N)Cc1ccc(O)cc1)[C@@H](C)O)[C@@H](C)O)[C@@H](C)CC)C(=O)N[C@@H](CC(N)=O)C(=O)N[C@@H](Cc1c[nH]c2ccccc12)C(=O)N[C@@H](CC(C)C)C(=O)N[C@@H](CC(C)C)C(=O)N[C@@H](C)C(=O)NCC(=O)NCC(=O)N1CCC[C@H]1C(=O)N[C@@H](CO)C(=O)N[C@@H](CO)C(=O)O [Compound No. 20] (H-Y[Aib]EGTFTSDYSILLEK([εLys-εLys-γGlu-C18 diacid])QAAREFINWLLAGGPSS-OH; N-terminus assumed) | 10.8 kg·h/L
CC[C@H](C)[C@H](NC(=O)[C@H](Cc1ccccc1)NC(=O)[C@H](CCC(=O)O)NC(=O)[C@H](CCC(N)=O)NC(=O)[C@H](C)NC(=O)[C@H](C)NC(=O)[C@H](CCC(N)=O)NC(=O)[C@H](CCCCNC(=O)[C@@H](N)CCCCNC(=O)[C@@H](N)CCCCNC(=O)CC[C@H](NC(=O)CCCCCCCCCCCCCCCCC(=O)O)C(=O)O)NC(=O)[C@H](CCC(=O)O)NC(=O)[C@H](CC(C)C)NC(=O)[C@H](CC(C)C)NC(=O)[C@@H](NC(=O)[C@H](CO)NC(=O)[C@H](Cc1ccc(O)cc1)NC(=O)[C@H](CC(=O)O)NC(=O)[C@H](CO)NC(=O)[C@@H](NC(=O)[C@H](Cc1ccccc1)NC(=O)[C@@H](NC(=O)CNC(=O)[C@H](CCC(=O)O)NC(=O)C(C)(C)NC(=O)[C@@H](N)Cc1ccc(O)cc1)[C@@H](C)O)[C@@H](C)O)[C@@H](C)CC)C(=O)N[C@@H](CC(N)=O)C(=O)N[C@@H](Cc1c[nH]c2ccccc12)C(=O)N[C@@H](CC(C)C)C(=O)N[C@@H](CC(C)C)C(=O)N[C@@H](C)C(=O)NCC(=O)NCC(=O)N1CCC[C@H]1C(=O)N[C@@H](CO)C(=O)N[C@@H](CO)C(=O)NCC(=O)N[C@@H](C)C(=O)N1CCC[C@H]1C(=O)N1CCC[C@H]1C(=O)N1CCC[C@H]1C(=O)N[C@@H](CO)C(=O)O [Compound No. 24] (H-Y[Aib]EGTFTSDYSILLEK([εLys-εLys-γGlu-C18 diacid])QAAQEFINWLLAGGPSSGAPPPS-OH; N-terminus assumed) | 16.4 kg·h/L
CC[C@H](C)[C@H](NC(=O)[C@H](Cc1ccccc1)NC(=O)[C@H](CCC(=O)O)NC(=O)[C@H](CCC(=O)O)NC(=O)[C@H](C)NC(=O)[C@H](C)NC(=O)[C@H](CCC(N)=O)NC(=O)[C@H](CCCCNC(=O)[C@@H](N)CCCCNC(=O)[C@@H](N)CCCCNC(=O)CC[C@H](NC(=O)CCCCCCCCCCCCCCCCC(=O)O)C(=O)O)NC(=O)[C@H](CCC(=O)O)NC(=O)[C@H](CC(C)C)NC(=O)[C@H](CC(C)C)NC(=O)[C@@H](NC(=O)[C@H](CO)NC(=O)[C@H](Cc1ccc(O)cc1)NC(=O)[C@H](CC(=O)O)NC(=O)[C@H](CO)NC(=O)[C@@H](NC(=O)[C@H](Cc1ccccc1)NC(=O)[C@@H](NC(=O)CNC(=O)[C@H](CCC(=O)O)NC(=O)C(C)(C)NC(=O)[C@@H](N)Cc1ccc(O)cc1)[C@@H](C)O)[C@@H](C)O)[C@@H](C)CC)C(=O)N[C@@H](CC(N)=O)C(=O)N[C@@H](Cc1c[nH]c2ccccc12)C(=O)N[C@@H](CC(C)C)C(=O)N[C@@H](CC(C)C)C(=O)N[C@@H](C)C(=O)NCC(=O)NCC(=O)N1CCC[C@H]1C(=O)N[C@@H](CO)C(=O)N[C@@H](CO)C(=O)NCC(=O)N[C@@H](C)C(=O)N1CCC[C@H]1C(=O)N1CCC[C@H]1C(=O)N1CCC[C@H]1C(=O)N[C@@H](CO)C(=O)O [Compound No. 25] (H-Y[Aib]EGTFTSDYSILLEK([εLys-εLys-γGlu-C18 diacid])QAAEEFINWLLAGGPSSGAPPPS-OH) | 15.2 kg·h/L
CC[C@H](C)[C@H](NC(=O)[C@H](Cc1ccccc1)NC(=O)[C@H](CCC(=O)O)NC(=O)[C@H](Cc1c[nH]cn1)NC(=O)[C@H](C)NC(=O)[C@H](C)NC(=O)[C@H](CCC(N)=O)NC(=O)[C@H](CCCCNC(=O)[C@@H](N)CCCCNC(=O)[C@@H](N)CCCCNC(=O)CC[C@H](NC(=O)CCCCCCCCCCCCCCCCC(=O)O)C(=O)O)NC(=O)[C@H](CCC(=O)O)NC(=O)[C@H](CC(C)C)NC(=O)[C@H](CC(C)C)NC(=O)[C@@H](NC(=O)[C@H](CO)NC(=O)[C@H](Cc1ccc(O)cc1)NC(=O)[C@H](CC(=O)O)NC(=O)[C@H](CO)NC(=O)[C@@H](NC(=O)[C@H](Cc1ccccc1)NC(=O)[C@@H](NC(=O)CNC(=O)[C@H](CCC(=O)O)NC(=O)C(C)(C)NC(=O)[C@@H](N)Cc1ccc(O)cc1)[C@@H](C)O)[C@@H](C)O)[C@@H](C)CC)C(=O)N[C@@H](CC(N)=O)C(=O)N[C@@H](Cc1c[nH]c2ccccc12)C(=O)N[C@@H](CC(C)C)C(=O)N[C@@H](CC(C)C)C(=O)N[C@@H](C)C(=O)NCC(=O)NCC(=O)N1CCC[C@H]1C(=O)N[C@@H](CO)C(=O)N[C@@H](CO)C(=O)NCC(=O)N[C@@H](C)C(=O)N1CCC[C@H]1C(=O)N1CCC[C@H]1C(=O)N1CCC[C@H]1C(=O)N[C@@H](CO)C(=O)O [Compound No. 26] (H-Y[Aib]EGTFTSDYSILLEK([εLys-εLys-γGlu-C18 diacid])QAAHEFINWLLAGGPSSGAPPPS-OH) | 27.4* kg*h/L
